According to US9440913B2, “Dihydroxybenzene derivatives and antiprotozoal agent comprising same as active ingredient” (NAI INC., priority 2010, dated 2016):

How the values were obtained:
[1] = biological target: T1, recombinant Trypanosome AOX (TAO) enzyme (Trypanosoma brucei brucei, UniProt Q26710); assay: TAO enzyme inhibition (quinol oxidase activity, ubiquinol-1 substrate); format: biochemical, T. brucei brucei; conditions: TAO-expressing E. coli membrane fraction, 25° C., ubiquinol-1, absorbance at 278 nm
T1 construct: made in house; host or cells: Escherichia coli (membrane fraction)
Procedure: Escherichia coli membrane fractions that express TAO by a plasmid harboring TAO cDNA cloned from T. brucei brucei (Fukai, Comparative Biochemistry & Physiology, 124, 141-148, 1999) were used as a recombinant Trypanosome AOX (TAO) enzyme. 50 mM Tris-HCl (pH 7.5), TAO-expressing membrane fraction (0.35 ng), and […] of an inhibitor were mixed in a 1 mL cuvette, and the mixture was incubated at 25° C. for 4 minutes. Ubiquinol-1 as a substrate was then added to the mixture to initiated the reaction, and change in absorbance at 278 nm was monitored (Shimadzu UV-3000, molar absorption coefficient ε=15 cm^−1 mM^−1).

[2] = biological target: Cryptosporidium cyanide insensitive oxidase (AOX), recombinant protein (cCpAOX) (Cryptosporidium parvum, UniProt Q761U6); assay: CpAOX enzyme inhibition; format: biochemical
Text: Cryptosporidium has found to have cyanide insensitive oxidase (AOX), and its inhibitory activity was observed using its recombinant protein (cCpAOX) produced in E. coli.

T. b. rhodesiense IL1501 = assay: Antiprotozoal effect, MIC measurement in HMI-9 culture; format: cell-based; conditions: Trypanosoma brucei, RHODESIENSE, 24 h, bloodstream forms, 18 + 6 hours culture
Procedure: T. b. rhodesiense IL1501, the human infectious protozoan that causes acute symptoms, was used as a Trypanosomatid protozoan. The bloodstream forms of protozoan can be cultured in a HMI-9 culture medium (Hirumi, 1989). The protozoan was always cultured at a temperature of 37° C. in the presence of 5% CO2.
In a microtiter plate (96-well, FALCON 3072), HMI-9 culture medium and HMI-9 culture medium plus glycerol added to make a final concentration of 8.33 mM are separately prepared. 89 μL of the preparation are put into only the first well, and a 60 μL aliquot of each the other wells. 1 μL of a solution of AF or a AF derivative dissolved in DMSO was added to the first well, and was then suspended. A 30 μL aliquot of the suspension was then collected, was transferred to the second well, and was suspended. These operations were repeated in this order to prepare a three-fold dilution series of drug. A 40 μL aliquot of a protozoan culture was added to each well to make a final concentration of 5×10^4 cells/well (a final concentration of glycerol of 5 mM) followed by 18-hours culturing under conditions of 37° C. and 5% CO2. (For EC50 measurement, a 10 μL aliquot of Alamar Blue was added to each well), culturing was carried out under the same conditions for 6 more hours, surviving protozoans were visually observed with a microscope. The concentration at which no motile surviving protozoan was observed was defined as MIC.

[3] = Glycerol (+), final concentration of glycerol of 5 mM

Chain of Cryptosporidium cyanide insensitive oxidase (AOX), recombinant protein (cCpAOX) (Q761U6 entry or part of it): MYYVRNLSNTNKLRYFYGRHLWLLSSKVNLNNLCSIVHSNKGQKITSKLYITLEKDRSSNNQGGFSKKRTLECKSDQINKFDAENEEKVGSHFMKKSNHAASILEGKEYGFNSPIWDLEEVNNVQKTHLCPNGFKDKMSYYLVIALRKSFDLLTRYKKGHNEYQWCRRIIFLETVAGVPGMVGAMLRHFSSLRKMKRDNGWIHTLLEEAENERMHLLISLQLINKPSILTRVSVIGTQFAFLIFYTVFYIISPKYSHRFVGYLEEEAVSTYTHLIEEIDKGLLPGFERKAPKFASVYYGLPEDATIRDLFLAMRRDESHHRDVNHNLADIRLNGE
T1 sequence (Q26710 whole entry): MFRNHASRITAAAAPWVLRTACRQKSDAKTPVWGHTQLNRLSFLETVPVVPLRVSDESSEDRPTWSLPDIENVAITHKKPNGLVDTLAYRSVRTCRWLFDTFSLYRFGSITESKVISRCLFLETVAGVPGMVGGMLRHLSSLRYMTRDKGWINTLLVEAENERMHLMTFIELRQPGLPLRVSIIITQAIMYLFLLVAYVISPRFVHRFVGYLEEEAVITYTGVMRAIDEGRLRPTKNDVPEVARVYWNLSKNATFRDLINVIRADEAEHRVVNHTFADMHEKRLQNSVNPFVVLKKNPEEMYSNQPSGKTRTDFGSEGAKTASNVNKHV

| Compound | IC50 [1] | IC50 [2] | melting point | MIC (T. b. rhodesiense IL1501; [3]) | MIC (T. b. rhodesiense IL1501; Glycerol (−)) |
| --- | --- | --- | --- | --- | --- |
| Cc1c(Cl)c(O)c(/C=C/CCCCCCCOC(=O)C(C)(C)C)c(O)c1C=O [Compound 200-13-OPiv, (E)-9-(3-Chloro-5-formyl-2,6-dihydroxy-4-methylphenyl)-8-nonenyl pivalate] | 0.32 nM | 2.2 nM | 69 to 70 °C |  |  |
| Cc1c(Cl)c(O)c(C/C=C/CCCCCOC(=O)C(C)(C)C)c(O)c1C=O [Compound 206-12-OPiv, (E)-8-(3-Chloro-5-formyl-2,6-dihydroxy-4-methylphenyl)-6-octenyl pivalate] | 0.27 nM | 2.1 nM |  | 0.006 nM | 0.024 nM |
| Cc1c(Cl)c(O)c(CCCCCCCCCC(=O)O)c(O)c1C=O [Compound 215-11-COOH, 10-(3-Chloro-5-formyl-2,6-dihydroxy-4-methylphenyl)decanoic acid] | 1.5 nM | 2.1 nM | 154 to 156 °C | 1500 nM | 4000 nM |
| CC(=O)OCCCCCCCCc1c(O)c(Cl)c(C)c(C=O)c1O [Compound 215-11-OAc, 8-(3-Chloro-5-formyl-2,6-dihydroxy-4-methylphenyl)octyl acetate] | 0.6 nM | 2.7 nM | 68 °C | 7.7 nM | 68 nM |
| Cc1c(Cl)c(O)c(CCCCCCCOC(=O)C(C)(C)C)c(O)c1C=O [Compound 215-11-OPiv, 7-(3-Chloro-5-formyl-2,6-dihydroxy-4-methylphenyl)heptyl pivalate] | 0.25 nM | 1.4 nM | 63 to 64 °C | 0.094 nM | 0.88 nM |
| COC(=O)CCCCCCCCCc1c(O)c(Cl)c(C)c(C=O)c1O [Compound 215-12-COOMe, Methyl 10-(3-chloro-5-formyl-2,6-dihydroxy-4-methylphenyl)decanoate] | 0.25 nM | 1.5 nM | 87 to 88 °C | 5.7 nM | 38 nM |
| CCC(=O)OCCCCCCCCc1c(O)c(Cl)c(C)c(C=O)c1O [Compound 215-12-OCOEt, 8-(3-Chloro-5-formyl-2,6-dihydroxy-4-methylphenyl)octyl propionate] | 0.29 nM | 2.2 nM | 63 to 64 °C |  |  |
| Cc1c(Cl)c(O)c(CCCCCCCCOC(=O)C(C)(C)C)c(O)c1C=O [Compound 215-12-OPiv, 8-(3-Chloro-5-formyl-2,6-dihydroxy-4-methylphenyl)octyl pivalate] | 0.32 nM | 2.7 nM | 70 to 71 °C | 0.49 nM | 1.9 nM |
| Cc1c(Cl)c(O)c(CCCCCCCCCC(=O)OC(C)(C)C)c(O)c1C=O [Compound 215-13-COOBu, tert-Butyl 10-(3-chloro-2,6-dihydroxy-5-formyl-4-methylphenyl)decanoate] | 0.25 nM | 0.92 nM |  | 1.2 nM | 16 nM |
| Cc1c(Cl)c(O)c(CCCCCCCCCC(=O)OC(C)C)c(O)c1C=O [Compound 215-13-COOiPr, Isopropyl 10-(3-chloro-2,6-dihydroxy-5-formyl-4-methylphenyl)decanoate] | 0.43 nM | 2.2 nM | 49 °C | 0.061 nM | 1.7 nM |
| CCC(=O)OCCCCCCCCCc1c(O)c(Cl)c(C)c(C=O)c1O [Compound 215-13-OCOEt, 9-(3-Chloro-5-formyl-2,6-dihydroxy-4-methylphenyl)nonyl propionate] | 0.2 nM | 2.1 nM | 69 to 70 °C | 7.1 nM | 125 nM |
| CCOC(=O)CCCCCCCCCCCc1c(O)c(Cl)c(C)c(C=O)c1O [Compound 215-15-COOEt, Ethyl 12-(3-chloro-5-formyl-2,6-dihydroxy-4-methylphenyl)dodecanoate] | 0.3 nM | 1.8 nM |  |  |  |
| Cc1c(Cl)c(O)c(CCCCCCCCCCCC(=O)OC(C)C)c(O)c1C=O [Compound 215-15-COOiPr, Isopropyl 12-(3-chloro-5-formyl-2,6-dihydroxy-4-methylphenyl)dodecanoate] | 0.32 nM | 2.5 nM | 82 to 83 °C |  |  |
| Cc1c(Cl)c(O)c(CCCCCCCC(=O)Oc2c3ccccc3cc3ccccc23)c(O)c1C=O [Compound 215-18-Anthra, 9-Anthryl 8-(3-chloro-5-formyl-2,6-dihydroxy-4-methylphenyl)octanate] | 0.5 nM | 2.6 nM |  | 3.8 nM | 6.6 nM |
| CCCCC/C(C)=C\Cc1c(O)c(Cl)c(C)c(C=O)c1O [Compound 264-8-z, (Z)-3-Chloro-4,6-dihydroxy-2-methyl-5-(3-methyl-2-octenyl)benzaldehyde] | 0.18 nM | 1.4 nM | 157 to 158 °C | 0.17 nM | 0.25 nM |
| Cc1c(Cl)c(O)c(CCC(C)CCCCOC(=O)C(C)(C)C)c(O)c1C=O (centres unmarked) [Compound 265-11-OPiv, 7-(3-Chloro-2,6-dihydroxy-5-formyl-4-methylphenyl)-5-methylheptyl pivalate] | 0.36 nM | 2.3 nM |  |  |  |
| COC(CC(=O)C(C)(C)C)/C(C)=C/CC/C(C)=C/Cc1c(O)c(Cl)c(C)c(C=O)c1O (centres unmarked) [Compound 271-12] | 0.22 nM | 1.6 nM |  | 0.0023 nM | 0.056 nM |
| CC(/C=C/C(=O)C(C)(C)C)=C\CC/C(C)=C/Cc1c(O)c(Cl)c(C)c(C=O)c1O [Compound 273-12, 3-Chloro-4,6-dihydroxy-2-methyl-5-[(2E,6E,8E)-3,7,11,11-tetramethyl-10-oxo-2,6,8-dodecatrienyl]benzaldehyde] | 0.23 nM | 2.2 nM |  | 1.9 nM | 3.7 nM |
| COC(=O)/C(C)=C/CC/C(C)=C/Cc1c(O)c(Cl)c(C)c(C=O)c1O [Compound 275-10-COOMe, Methyl (2E,6E)-8-(3-Chloro-5-formyl-2,6-dihydroxy-4-methyl)phenyl-2,6-dimethyl-2,6-octadienate] | 0.38 nM | 1.2 nM |  | 1.1 nM | 8.7 nM |
| CC(=O)/C(C)=C/CC/C(C)=C/Cc1c(O)c(Cl)c(C)c(C=O)c1O [Compound 276-9] | 1.2 nM | 2.1 nM | 119 to 120 °C | 0.53 nM | 13 nM |
| CC(C)=CCC/C=C/Cc1c(O)c(Cl)c(C)c(C=O)c1O [Compound 278-8, (E)-3-Chloro-4,6-dihydroxy-2-methyl-5-(7-methyl-2,6-octadienyl)benzaldehyde] | 0.25 nM | 1.2 nM |  | 7.4 nM | 14 nM |
| Cc1c(Cl)c(O)c(CCCCCCC(C)C)c(O)c1C=O [Compound 279-8, 3-Chloro-4,6-dihydroxy-2-methyl-5-(7-methyloctyl)benzaldehyde] | 0.22 nM | 2.1 nM | 93 to 94 °C | 7.3 nM | 12 nM |
| CCCCCC#CCc1c(O)c(Cl)c(C)c(C=O)c1O [Compound 284-8, 3-Chloro-4,6-dihydroxy-5-(2-octynyl)-2-methylbenzaldehyde] | 0.3 nM | 1.9 nM | 135 to 136 °C | 9.6 nM | 92 nM |
| Cc1c(Cl)c(O)c(CCCCCCCCCC(=O)OCC2COC(C)(C)O2)c(O)c1C=O (centres unmarked) [Compound 502-16-G, 2,2-Dimethyl-1,3-dioxolanee-4-methyl 10-(3-chloro-5-formyl-2,6-dihydroxy-4-methylphenyl)decanoate] | 0.3 nM | 2.3 nM | 55 to 56 °C | 1.2 nM | 12 nM |
